# According to ChEMBL document CHEMBL4627384, “l-Thyroxin and the Nonclassical Thyroid Hormone TETRAC Are Potent Activators of PPARγ” (J Med Chem, 2020):
# Calls of active or inactive are those of the source. The rule behind the calls is not given here.
# Legend:
# [1] = Drug metabolism in human HepG2 cells assessed as (S)-2-amino-3-(4-(4-hydroxy-3-iodophenoxy)-3,5-diiodophenyl)propanoic acid formation at 10 uM incubated for 24 hrs by LC-MS analysis; format: ADME, cell-based; settings: hepg2, 24 h
# [2] = target: Luciferin 4-monooxygenase (Photinus pyralis) (UniProt P08659); assay: Activation of firefly luciferase expressed in HEK293T cells at 15 uM incubated for 14 to 16 hrs by reporter gene assay; format: cell-based; settings: HEK-293T
# [3] = Drug metabolism in human HepG2 cells assessed as 2-(4-(4-hydroxy-3-iodophenoxy)-3,5-diiodophenyl)acetic acid formation at 10 uM incubated for 24 hrs by LC-MS analysis; format: ADME, cell-based; settings: hepg2, 24 h
# [4] = target: T1, Peroxisome proliferator-activated receptor gamma (Homo sapiens) (UniProt P37231); assay: Agonist activity at PPARgamma in human HepG2 cells assessed as induction of CD36 mRNA expression at 10 to 30 uM incubated for 8 hrs by qPCR analysis; format: cell-based
# T1 sequence (whole entry): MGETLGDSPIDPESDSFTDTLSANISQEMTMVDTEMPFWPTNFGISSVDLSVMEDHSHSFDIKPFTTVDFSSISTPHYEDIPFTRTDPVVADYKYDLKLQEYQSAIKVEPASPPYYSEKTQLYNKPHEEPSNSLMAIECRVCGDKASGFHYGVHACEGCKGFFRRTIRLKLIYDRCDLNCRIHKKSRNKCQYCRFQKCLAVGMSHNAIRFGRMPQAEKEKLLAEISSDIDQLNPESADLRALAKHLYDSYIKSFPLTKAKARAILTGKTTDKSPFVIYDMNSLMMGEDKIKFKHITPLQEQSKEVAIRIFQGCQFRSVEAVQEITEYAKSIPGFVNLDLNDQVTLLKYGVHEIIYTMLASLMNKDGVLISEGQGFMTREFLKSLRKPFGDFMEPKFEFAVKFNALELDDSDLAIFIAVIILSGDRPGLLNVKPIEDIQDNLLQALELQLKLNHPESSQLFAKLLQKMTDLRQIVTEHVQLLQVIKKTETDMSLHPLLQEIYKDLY
# [5] = target: T1, Peroxisome proliferator-activated receptor gamma (Homo sapiens); assay: Agonist activity at PPARgamma in human HepG2 cells with THRA knockdown assessed as induction of CD36 expression at 1 uM incubated for 8 hrs in by Western blot analysis; format: cell-based
# [6] = target: T2, Retinoic acid receptor RXR-alpha (Homo sapiens, UniProt P19793); assay: Agonist activity at GFP RXRalpha LBD (unknown origin) assessed as biotin-labeled SRC-1 recruitment incubated for 2 hrs by HT-FRET assay
# T2 sequence (P19793 whole entry): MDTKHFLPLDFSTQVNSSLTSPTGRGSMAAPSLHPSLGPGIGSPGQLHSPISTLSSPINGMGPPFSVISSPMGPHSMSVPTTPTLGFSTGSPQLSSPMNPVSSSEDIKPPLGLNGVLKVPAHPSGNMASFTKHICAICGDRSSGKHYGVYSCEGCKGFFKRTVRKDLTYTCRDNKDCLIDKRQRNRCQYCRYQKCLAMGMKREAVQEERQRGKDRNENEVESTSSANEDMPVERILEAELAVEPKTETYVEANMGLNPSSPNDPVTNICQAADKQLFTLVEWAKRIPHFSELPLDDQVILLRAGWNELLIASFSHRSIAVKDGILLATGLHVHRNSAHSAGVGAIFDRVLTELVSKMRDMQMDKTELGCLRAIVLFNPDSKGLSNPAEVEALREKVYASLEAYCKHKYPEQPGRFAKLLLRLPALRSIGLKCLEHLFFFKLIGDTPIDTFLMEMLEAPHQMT
# [7] = target: T1, Peroxisome proliferator-activated receptor gamma (Homo sapiens); assay: Agonist activity at N-terminal GFP-fused PPARgamma LBD (unknown origin) assessed as biotin-labeled SRC-1 recruitment incubated for 2 hrs by HT-FRET assay relative to rosiglitazone
# [8] = target: T1, Peroxisome proliferator-activated receptor gamma (Homo sapiens); assay: Agonist activity at PPARgamma in human HepG2 cells without THRA knockdown assessed as induction of CD36 expression at 1 uM incubated for 8 hrs in by Western blot analysis; format: cell-based
# [9] = target: T3, Peroxisome proliferator-activated receptor gamma (Mus musculus) (UniProt P37238); assay: Agonist activity at PPARgamma in mouse 3T3L1 adipocytes assessed as induction of CD36 mRNA expression at 1 uM by qRT-PCR analysis; format: cell-based; settings: 3T3-L1
# T3 sequence (whole entry): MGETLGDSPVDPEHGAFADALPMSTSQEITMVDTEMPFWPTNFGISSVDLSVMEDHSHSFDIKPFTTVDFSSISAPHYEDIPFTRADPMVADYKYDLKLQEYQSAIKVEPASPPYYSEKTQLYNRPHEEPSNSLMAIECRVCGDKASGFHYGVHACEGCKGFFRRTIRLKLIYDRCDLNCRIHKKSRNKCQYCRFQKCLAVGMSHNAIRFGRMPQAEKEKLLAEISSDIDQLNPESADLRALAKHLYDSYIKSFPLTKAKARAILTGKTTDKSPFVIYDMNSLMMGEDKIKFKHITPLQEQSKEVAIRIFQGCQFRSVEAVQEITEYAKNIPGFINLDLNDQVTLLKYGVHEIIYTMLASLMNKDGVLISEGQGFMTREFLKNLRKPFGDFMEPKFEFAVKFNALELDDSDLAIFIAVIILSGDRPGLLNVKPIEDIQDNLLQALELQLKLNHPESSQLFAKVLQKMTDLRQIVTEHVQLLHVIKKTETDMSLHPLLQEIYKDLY
# [10] = target: T3, Peroxisome proliferator-activated receptor gamma (Mus musculus); assay: Agonist activity at PPARgamma in mouse 3T3L1 assessed as induction of adipocytes differentiation by Oil Red O staining based assay; format: cell-based; settings: 3T3-L1
# [11] = target: T1, Peroxisome proliferator-activated receptor gamma (Homo sapiens); assay: Agonist activity at PPARgamma in human HepG2 cells assessed as induction of CD36 mRNA expression at 1 uM incubated for 8 hrs in presence of PPARgamma antagonist GW9662 by qPCR analysis; format: cell-based
# [12] = target: T4, Thyroid hormone receptor beta (Homo sapiens, UniProt P10828); assay: Agonist activity at THRbeta (unknown origin) incubated for 14 to 16 hrs by dual glo luciferase reporter gene assay
# T4 sequence (P10828 whole entry): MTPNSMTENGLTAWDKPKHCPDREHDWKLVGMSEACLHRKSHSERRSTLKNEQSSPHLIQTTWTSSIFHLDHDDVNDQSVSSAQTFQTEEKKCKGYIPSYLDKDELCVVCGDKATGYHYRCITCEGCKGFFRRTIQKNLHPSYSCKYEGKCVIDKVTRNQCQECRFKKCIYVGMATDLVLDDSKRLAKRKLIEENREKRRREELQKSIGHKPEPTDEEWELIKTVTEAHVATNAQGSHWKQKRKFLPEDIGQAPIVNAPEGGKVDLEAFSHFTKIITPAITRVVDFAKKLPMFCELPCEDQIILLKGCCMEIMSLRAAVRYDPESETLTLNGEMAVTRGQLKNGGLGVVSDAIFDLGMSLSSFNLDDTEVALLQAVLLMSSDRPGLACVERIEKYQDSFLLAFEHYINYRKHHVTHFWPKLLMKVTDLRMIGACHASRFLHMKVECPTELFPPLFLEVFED
# [13] = target: T3, Peroxisome proliferator-activated receptor gamma (Mus musculus); assay: Agonist activity at PPARgamma in mouse 3T3L1 adipocytes assessed as induction of LPL mRNA expression at 1 uM by qRT-PCR analysis; format: cell-based; settings: 3T3-L1
# Luciferin 4-monooxygenase (Photinus pyralis), sequence (P08659 whole entry): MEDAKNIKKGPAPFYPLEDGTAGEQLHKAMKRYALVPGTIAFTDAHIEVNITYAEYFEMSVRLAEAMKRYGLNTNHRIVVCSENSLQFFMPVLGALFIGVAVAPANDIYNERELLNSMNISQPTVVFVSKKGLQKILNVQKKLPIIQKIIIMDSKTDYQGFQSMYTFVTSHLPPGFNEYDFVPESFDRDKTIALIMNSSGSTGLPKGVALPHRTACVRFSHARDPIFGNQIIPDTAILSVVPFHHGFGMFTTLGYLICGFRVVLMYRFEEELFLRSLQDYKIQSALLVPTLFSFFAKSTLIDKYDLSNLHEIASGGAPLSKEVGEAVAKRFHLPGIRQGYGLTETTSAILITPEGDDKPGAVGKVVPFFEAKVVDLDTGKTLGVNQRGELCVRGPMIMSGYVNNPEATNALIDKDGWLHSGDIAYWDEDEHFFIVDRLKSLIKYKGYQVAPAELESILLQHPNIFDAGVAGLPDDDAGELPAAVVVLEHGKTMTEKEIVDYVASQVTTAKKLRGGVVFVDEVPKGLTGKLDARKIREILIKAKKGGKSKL
Drug metabolism [1],Activity [2],Drug metabolism [3],Activity [4],Activity [5],EC50 [6],Activity [7],Activity [8],Activity [9],Activity [10],Activity [11],EC50 [12],Activity [13],SMILES
174 ng,inactive,Metabolite_Notdetected,Active,,,,,,,,,,N[C@@H](Cc1cc(I)c(Oc2cc(I)c(O)c(I)c2)c(I)c1)C(=O)O [LEVOTHYROXINE]
,,,,Active,4.6 µM,Active,Active,Active,Dose-dependent effect,inactive,0.02 µM,Active,O=C(O)Cc1cc(I)c(Oc2cc(I)c(O)c(I)c2)c(I)c1 [TETRAC]
